This note sets out measurements from patent US20080200454A1, “CARBON-LINKED TETRAHYDRO-PYRAZOLO-PYRIDINE MODULATORS OF CATHEPSIN S” (priority 2007, published 2008).

Where two headings read alike, the source gives them in different places.

The test addresses Recombinant human cathepsin S (CatS) (Homo sapiens, UniProt P25774). The test can be described thus: Recombinant human cathepsin S (CatS) inhibition assay, fluorogenic substrate Z-Valine-Valine-Arginine-AMC.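 Further: Baculovirus-expressed CatS in pH 5.0 sodium acetate buffer with DTT and NaCl, fluorescence read each minute over 20 min, inhibition derived from rate slope.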

Recombinant human cathepsin S (CatS), sequence (P25774 115-331): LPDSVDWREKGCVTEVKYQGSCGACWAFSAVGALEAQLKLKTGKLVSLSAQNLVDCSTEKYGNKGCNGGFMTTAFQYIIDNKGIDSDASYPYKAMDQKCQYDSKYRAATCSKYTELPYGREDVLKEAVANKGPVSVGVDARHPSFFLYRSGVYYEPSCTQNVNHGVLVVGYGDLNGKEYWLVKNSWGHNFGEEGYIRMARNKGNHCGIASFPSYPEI

Usually IC50 stands for the concentration at which inhibition is half-maximal. On to `CS(=O)(=O)N1CCc2c(c(-c3ccc(Cl)c(C#Cc4ccc(NCc5ccccc5)cc4)c3)nn2CCCN2CCOCC2)C1` [Example 321, 4-({2-Chloro-5-[5-(methylsulfonyl)-1-(3-morpholin-4-ylpropyl)-4,5,6,7-tetrahydro-1H-pyrazolo[4,3-c]pyridin-3-yl]phenyl}ethynyl)-N-(phenylmethyl)aniline], for which the IC50 (CatS IC50) turned out to be 4650 nM.
Still for that read-out and setting: then `CS(=O)(=O)N1CCc2c(c(-c3ccc(Cl)c(C#Cc4cccc(CNCc5ccc(Cl)cc5)c4)c3)nn2CCCN2C[C@@H]3C[C@H]2CO3)C1` [Example 440, 1-[3-({2-Chloro-5-[5-(methylsulfonyl)-1-{3-[(1S,4S)-2-oxa-5-azabicyclo[2.2.1]hept-5-yl]propyl}-4,5,6,7-tetrahydro-1H-pyrazolo[4,3-c]pyridin-3-yl]phenyl}ethynyl)phenyl]-N-[(4-chlorophenyl)methyl]methanamine], with 390 nM.
On to `CS(=O)(=O)N1CCc2c(c(-c3ccc(Cl)c(C#Cc4ccc(CNCc5ccccc5)cc4)c3)nn2CCCN2CCOCC2)C1` [Example 74, Benzyl-(4-{2-chloro-5-[5-methanesulfonyl-1-(3-morpholin-4-yl-propyl)-4,5,6,7-tetrahydro-1H-pyrazolo[4,3-c]pyridin-3-yl]-phenylethynyl}-benzyl)-amine], for which the IC50 is 430 nM.
Same read-out and setting: then `CS(=O)(=O)N1CCc2c(c(-c3ccc(Cl)c(C#Cc4ccc(CN[C@H](CO)c5ccccc5)cc4)c3)nn2CCCN2CCN(c3ccccn3)CC2)C1` [Example 218, (2S)-2-[({4-[(2-Chloro-5-{5-(methylsulfonyl)-1-[3-(4-pyridin-2-ylpiperazin-1-yl)propyl]-4,5,6,7-tetrahydro-1H-pyrazolo[4,3-c]pyridin-3-yl}phenyl)ethynyl]phenyl}methyl)amino]-2-phenylethanol], with 30 nM.
In the case of `CS(=O)(=O)N1CCc2c(c(-c3ccc(Cl)c(C#Cc4ccc(CNCc5ccc(Cl)cc5)cc4)c3)nn2CCCN2CCC(C(=O)O)CC2)C1` [Example 336, 1-{3-[3-(4-Chloro-3-{[4-({[(4-chlorophenyl)methyl]amino}methyl)phenyl]ethynyl}phenyl)-5-(methylsulfonyl)-4,5,6,7-tetrahydro-1H-pyrazolo[4,3-c]pyridin-1-yl]propyl}piperidine-4-carboxylic acid], the IC50 (CatS IC50) came to 150 nM.
Same read-out and setting: then `CS(=O)(=O)N1CCc2c(c(-c3ccc(Cl)c(C#Cc4ccc(CNCc5ccc(Cl)cc5)cc4)c3)nn2CCCN2CCN(c3ccncc3)CC2)C1` [Example 416, 1-{4-[(2-Chloro-5-{5-(methylsulfonyl)-1-[3-(4-pyridin-4-ylpiperazin-1-yl)propyl]-4,5,6,7-tetrahydro-1H-pyrazolo[4,3-c]pyridin-3-yl}phenyl)ethynyl]phenyl}-N-[(4-chlorophenyl)methyl]methanamine], with 70 nM.
As to `C[C@H]1COCCN1CCCn1nc(-c2ccc(Cl)c(C#Cc3ccc(Cl)c(CNC[C@@H]4CCCO4)c3)c2)c2c1CCN(C(=O)C(N)=O)C2` [Example 267, 2-{3-[4-Chloro-3-(4-chloro-3-{[((2S)-tetrahydro-furan-2-ylmethyl)-amino]-methyl}-phenylethynyl)-phenyl]-1-[3-((3S)-3-methyl-morpholin-4-yl)-propyl]-1,4,6,7-tetrahydro-pyrazolo[4,3-c]pyridin-5-yl}-2-oxo-acetamide], the IC50 amounted to 10 nM.
Same read-out and setting: then `CS(=O)(=O)N1CCc2c(c(-c3ccc(Cl)c(C#CCCc4ccccc4)c3)nn2CCCN2CCOCC2)C1` [Example 42, 3-[4-Chloro-3-(4-phenyl-but-1-ynyl)-phenyl]-5-methanesulfonyl-1-(3-morpholin-4-yl-propyl)-4,5,6,7-tetrahydro-1H-pyrazolo[4,3-c]pyridine], with 9750 nM.
As for `NC(=O)N1CCc2c(c(-c3ccc(Cl)c(C#Cc4ccc(CN5CCC(N6C[C@H](O)CC6=O)CC5)cc4)c3)nn2CCCN2CCSCC2)C1` [Example 549, 3-(4-Chloro-3-{[4-({4-[(4R)-4-hydroxy-2-oxopyrrolidin-1-yl]piperidin-1-yl}methyl)phenyl]ethynyl}phenyl)-1-(3-thiomorpholin-4-ylpropyl)-1,4,6,7-tetrahydro-5H-pyrazolo[4,3-c]pyridine-5-carboxamide], under “CatS IC50”, the IC50 worked out at 1010 nM.
As for `C[C@H]1COCCN1CCCn1nc(-c2ccc(Cl)c(C#Cc3ccc(Cl)c(CNCC(=O)O)c3)c2)c2c1CCNC2` [Example 553, N-[(2-Chloro-5-{[2-chloro-5-(1-{3-[(3S)-3-methylmorpholin-4-yl]propyl}-4,5,6,7-tetrahydro-1H-pyrazolo[4,3-c]pyridin-3-yl)phenyl]ethynyl}phenyl)methyl]glycine], the half-maximal inhibitory concentration (IC50) was determined as 450 nM.
On to `CS(=O)(=O)N1CCc2c(c(-c3ccc(Cl)c(C#Cc4ccc(CN5CCc6ccccc6C5)cc4)c3)nn2CCCN2CCOCC2)C1` [Example 442, 2-{[4-({2-Chloro-5-[5-(methylsulfonyl)-1-(3-morpholin-4-ylpropyl)-4,5,6,7-tetrahydro-1H-pyrazolo[4,3-c]pyridin-3-yl]phenyl}ethynyl)phenyl]methyl}-1,2,3,4-tetrahydroisoquinoline], for which the 50% inhibitory concentration (IC50) (CatS IC50) is 300 nM.
On the same count and under the same terms, then `NC(=O)N1CCc2c(c(-c3ccc(Cl)c(C#Cc4ccc(CNCc5ccc(OC(F)F)cc5)cc4)c3)nn2CCCN2CCSCC2)C1` [Example 176], with 230 nM.
Take `NC(=O)N1CCc2c(c(-c3ccc(Cl)c(CCc4ccc(CNCc5ccc(Cl)cc5)cc4)c3)nn2CCCN2CCOCC2)C1` [Example 476, 3-(4-Chloro-3-{2-[4-({[(4-chlorophenyl)methyl]amino}methyl)phenyl]ethyl}phenyl)-1-(3-morpholin-4-ylpropyl)-1,4,6,7-tetrahydro-5H-pyrazolo[4,3-c]pyridine-5-carboxamide]: the IC50 amounted to 120 nM.
For the molecule `C[C@H]1COCCN1CCCn1nc(-c2ccc(Cl)c(C#Cc3ccc(Cl)c(CNC4CCCC4)c3)c2)c2c1CCN(C(=O)C(N)=O)C2` [Example 269, (S)-2-{3-[4-Chloro-3-(4-chloro-3-cyclopentylaminomethyl-phenylethynyl)-phenyl]-1-[3-(3-methyl-morpholin-4-yl)-propyl]-1,4,6,7-tetrahydro-pyrazolo[4,3-c]pyridin-5-yl}-2-oxo-acetamide], the IC50 (CatS IC50) came to 10 nM.
Consider `CC1COCCN1C[C@H](O)Cn1nc(-c2ccc(Cl)c(C#Cc3ccc(CNCc4ccc(Cl)cc4)cc3)c2)c2c1CCN(S(C)(=O)=O)C2` (stereo in doubt) [Example 266, (2S)-1-[3-(4-Chloro-3-{4-[(4-chloro-benzylamino)-methyl]-phenylethynyl}-phenyl)-5-methanesulfonyl-4,5,6,7-tetrahydro-pyrazolo[4,3-c]pyridin-1-yl]-3-((3S)-3-methyl-morpholin-4-yl)-propan-2-ol], for which the IC50 worked out at 350 nM.
Turning to `CS(=O)(=O)N1CCc2c(c(-c3ccc(Cl)c(C#Cc4ccc(CNCc5ccc(Cl)cc5)cc4)c3)nn2CCCN2CCNC(=O)C2)C1` [Example 397, 4-{3-[3-(4-Chloro-3-{[4-({[(4-chlorophenyl)methyl]amino}methyl)phenyl]ethynyl}phenyl)-5-(methylsulfonyl)-4,5,6,7-tetrahydro-1H-pyrazolo[4,3-c]pyridin-1-yl]propyl}piperazin-2-one], the IC50 (CatS IC50) was found to be 510 nM.
Same read-out and setting: then `CC(C)CC#Cc1cc(-c2nn(C[C@@H](O)CN3CCC(C4CCNCC4)CC3)c3c2CN(S(C)(=O)=O)CC3)ccc1Cl` [Example 239, (2S)-1-(4,4′-Bipiperidin-1-yl)-3-{3-[4-chloro-3-(4-methylpent-1-yn-1-yl)phenyl]-5-(methylsulfonyl)-4,5,6,7-tetrahydro-1H-pyrazolo[4,3-c]pyridin-1-yl}propan-2-ol], with 610 nM.
For the molecule `CS(=O)(=O)N1CCc2c(c(-c3ccc(Cl)c(C#CCN4CCS(=O)(=O)CC4)c3)nn2CCCN2CCOCC2)C1` [Example 50, 3-{4-Chloro-3-[3-(1,1-dioxo-1 A^6-thiomorpholin-4-yl)-prop-1-ynyl]-phenyl}-5-methanesulfonyl-1-(3-morpholin-4-yl-propyl)-4,5,6,7-tetrahydro-1H-pyrazolo[4,3-c]pyridine], the IC50 amounted to 6800 nM.
As to `C[C@H]1COCCN1CCCn1nc(-c2ccc(Cl)c(C#Cc3ccc(Cl)c(COC4CCNC4)c3)c2)c2c1CCN(C(=O)C(N)=O)C2` (stereo partly drawn) [Example 275, (S)-2-[3-[4-Chloro-3-[4-chloro-3-(pyrrolidin-3-yloxymethyl)-phenylethynyl]-phenyl}-1-[3-(3-methyl-morpholin-4-yl)-propyl]-1,4,6,7-tetrahydro-pyrazolo[4,3-c]pyridin-5-yl}-2-oxo-acetamide], the IC50 amounted to 50 nM.
With `CS(=O)(=O)N1CCc2c(c(-c3ccc(Cl)c(C#Cc4ccc(CNCc5ccc(Cl)cc5)cc4)c3)nn2CCCN2CCN(c3ccccc3O)CC2)C1` [Example 407, 2-(4-{3-[3-(4-Chloro-3-{[4-({[(4-chlorophenyl)methyl]amino}methyl)phenyl]ethynyl}phenyl)-5-(methylsulfonyl)-4,5,6,7-tetrahydro-1H-pyrazolo[4,3-c]pyridin-1-yl]propyl}piperazin-1-yl)phenol], the IC50 (CatS IC50) turned out to be 20 nM.
Same read-out and setting: next, `CC(C)CC#Cc1cc(-c2nn(CCCN3CCOCC3)c3c2CN(S(C)(=O)=O)CC3)ccc1Cl` [Example 51, 3-[4-Chloro-3-(4-methyl-pent-1-ynyl)-phenyl]-5-methanesulfonyl-1-(3-morpholin-4-yl-propyl)-4,5,6,7-tetrahydro-1H-pyrazolo[4,3-c]pyridine]: 8250 nM.
As to `NC(=O)N1CCc2c(c(-c3ccc(Cl)c(C#Cc4ccc(Cl)c(C(=O)NCC5CNCCO5)c4)c3)nn2CCCN2CCSCC2)C1` (centres unmarked) [Example 584, 3-[4-Chloro-3-({4-chloro-3-[(morpholin-2-ylmethyl)carbamoyl]phenyl}ethynyl)phenyl]-1-(3-thiomorpholin-4-ylpropyl)-1,4,6,7-tetrahydro-5H-pyrazolo[4,3-c]pyridine-5-carboxamide], the IC50 was 40 nM.
As for `CS(=O)(=O)N1CCc2c(c(-c3ccc(Cl)c(C#Cc4ccccn4)c3)nn2C[C@@H](O)CN2CCC(C3CCNCC3)CC2)C1` [Example 473, (2S)-1-(4,4′-Bipiperidin-1-yl)-3-{3-[4-chloro-3-(pyridin-2-ylethynyl)phenyl]-5-(methylsulfonyl)-4,5,6,7-tetrahydro-1H-pyrazolo[4,3-c]pyridin-1-yl}propan-2-ol], under “CatS IC50”, the IC50 was 120 nM.
